One may read the pIC50 as −log10 of the IC50, conventionally taken in molar units. Lower therefore signals a large IC50.

For one data set, the target named is T1, human topoisomerase I (Homo sapiens, UniProt P11387).
T1 construct: unnamed fusion partner (recombinant fusion protein); made in house
T1 sequence (P11387 1-765): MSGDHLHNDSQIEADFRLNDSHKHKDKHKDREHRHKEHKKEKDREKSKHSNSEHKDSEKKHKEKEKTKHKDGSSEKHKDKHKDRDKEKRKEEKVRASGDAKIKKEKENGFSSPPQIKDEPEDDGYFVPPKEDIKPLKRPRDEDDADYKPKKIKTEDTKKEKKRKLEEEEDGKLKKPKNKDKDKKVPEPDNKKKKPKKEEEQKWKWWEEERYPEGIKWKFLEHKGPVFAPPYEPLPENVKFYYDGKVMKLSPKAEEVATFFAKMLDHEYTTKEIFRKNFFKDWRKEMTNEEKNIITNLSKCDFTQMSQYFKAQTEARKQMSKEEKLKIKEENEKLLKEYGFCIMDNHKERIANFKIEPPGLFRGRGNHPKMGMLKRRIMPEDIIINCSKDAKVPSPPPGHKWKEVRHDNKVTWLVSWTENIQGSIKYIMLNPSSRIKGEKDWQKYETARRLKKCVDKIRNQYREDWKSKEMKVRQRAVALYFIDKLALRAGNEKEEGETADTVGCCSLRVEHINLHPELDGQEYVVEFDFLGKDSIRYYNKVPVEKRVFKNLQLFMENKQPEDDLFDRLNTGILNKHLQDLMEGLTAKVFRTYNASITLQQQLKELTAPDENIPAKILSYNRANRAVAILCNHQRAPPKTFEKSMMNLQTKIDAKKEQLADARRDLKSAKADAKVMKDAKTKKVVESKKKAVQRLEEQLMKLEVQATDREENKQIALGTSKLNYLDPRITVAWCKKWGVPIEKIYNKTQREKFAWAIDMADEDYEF
Briefly: Test A. Topoisomerase I Cleavage Assay. Format: biochemical. As to conditions: concentration relative to compound 5 (arbitrarily assumed as 1) producing the same cleavage on plasmid DNA with human topoisomerase I. On the procedure: Test A. Topoisomerase I Cleavage Assay
Representative compounds of the invention were evaluated in a cleavage assay using recombinant topoisomerases I. This assay was preformed as described by B. Gatto et al. Cancer Res., 1996, 56, 2795–2800. Human topoisomerase I was isolated as a recombinant fusion protein using a T7 expression system. Plasmid YEpG was purified by the alkali lysis method followed by phenol deproteination and CsCl/ethidium isopycnic centrifugation as described by Maniatis, T.; Fritsch, E. F.; Sambrook, J. Molecular Cloning, a Laboratory Manual; Cold Spring Harbor Laboratory: Cold Spring Harbor, N.Y. 1982; pp 149–185. The end-labeling of the plasmid was accomplished by digestion with a restriction enzyme followed by end-filling with Klenow polymerase as previously described by Liu, L. F.; Rowe, T. C.; Yang, L.; Tewey, K. M.; Chen, G. L. “Cleavage of DNA by mammalian topoisomerase II,” J. Biol. Chem. 1983, 258, 15365. IC50 values were calculated after 4 days of continuous drug exposure. Topoisomerase I cleavage values are reported as REC, Relative Effective Concentration (i.e., concentrations relative to compound 5, whose value is arbitrarily assumed as 1) that is able to produce the same cleavage on the plasmid DNA in the presence of human topoisomerase I.

Another data set has as its system RPMI 8402 cells. Kind of data set: Test B. MTT cytotoxicity assay (MTA), RPMI 8402. Format: cell-based. Particulars: RPMI 8402 human lymphoblast; continuous drug exposure, MTT at end of fourth day. On the procedure:
(§1) Test B. Cytotoxicity Assay
(§2) Cytotoxicity was determined using the MTT-microtiter plate tetrazolinium cytotoxicity assay (MTA) (See Chen A. Y. et al. Cancer Res. 1993, 53, 1332; Mosmann, T. J., J. Immunol. Methods 1983, 65, 55; and Carmichael, J. et al. Cancer Res. 1987, 47, 936). The human lymphoblast RPMI 8402 and its camptothecin-resistant variant cell line, CPT-K5 were provided by Dr. Toshiwo Andoh (Aichi Cancer Center Research Institute, Nagoya, Japan) (see Andoh, T.; Okada, K. “Drug resistance mechanisms of topoisomerase I drugs,” Adv. in Pharmacology 1994, 29B, 93. The cytotoxicity assay was performed using 96-well microtiter plates. Cells were grown in suspension at 37° C. in 5% CO2 and maintained by regular passage in RPMI medium supplemented with 10% heat-inactivated fetal bovine serum, L-glutamine (2 mM), penicillin (100 U/mL), and streptomycin (0.1 mg/mL). For determination of IC50, cells were exposed continuously with varying concentrations of drug and MTT assays were performed at the end of the fourth day.

Data set [1] has as its system CPT-K5 (camptothecin-resistant variant of RPMI 8402). Briefly: Test B. MTT cytotoxicity assay (MTA), CPT-K5. Format: cell-based, human. As to conditions: continuous drug exposure, MTT at end of fourth day. On the procedure: as §1, §2
(In general: Tetrazolium assays rely on reduction of a dye to a coloured formazan, in cell work by metabolically active cells.)

pIC50: −log10 of the molar value. Where only a bound is given, the exact number is not on record here.

For `c1ccc(-c2ccc3[nH]c(-c4ccc5[nH]c(-c6ccc7nccnc7c6)nc5c4)nc3c2)cc1` [Compound 3, 5-Phenyl-2′-(quinoxaline-6-yl)-bibenzimidazole], the “Topo I-mediated DNA cleavage (REC, Relative Effective Concentration)” value at human topoisomerase I is recorded as 1. Further, the pIC50 is 5.64 with RPMI 8402 cells and 4.68 in data set [1].

For `c1ccc(-c2ccc3[nH]c(-c4ccc5[nH]c(-c6ccc7[nH]nnc7c6)nc5c4)nc3c2)cc1` [Compound 2, 5-Phenyl-2′-(benzotriazol-5-yl)-bibenzimidazole], on human topoisomerase I, the “Topo I-mediated DNA cleavage (REC, Relative Effective Concentration)” value is 1. For the same molecule, the pIC50 (in the data set with RPMI 8402 cells; in data set [1]) was 6.33 throughout.

`O=c1[nH]c2ccc(-c3nc4cc(-c5nc6cc(-c7ccccc7)ccc6[nH]5)ccc4[nH]3)cc2[nH]c1=O` [Compound 4, 5-Phenyl-2′-(quinoxalinedione-6-yl)bibenzimidazole]: the pIC50 with RPMI 8402 cells was 4.70; in data set [1], below 4.70.

The values are drawn from patent US6995154B2, “Heterocyclic topoisomerase poisons” (Rutgers, The State University of New Jersey, priority 1997, dated 2006).
